Experiment [1] deals with Tyrosine-protein phosphatase non-receptor type 11 (Homo sapiens, UniProt Q06124, F285S). Nature of the experiment: (§1) Inhibition of SHP2 F285S mutant (1 to 525 residues) (unknown origin) expressed in Escherichia coli BL21(DE3) using DIFMUP as substrate preincubated for 30 mins followed by substrate addition by fluorescence assay.
For experiment [2], the system named is T1, Tyrosine-protein phosphatase non-receptor type 11 (Homo sapiens), Q06124 [F285S].
T1 sequence (whole entry): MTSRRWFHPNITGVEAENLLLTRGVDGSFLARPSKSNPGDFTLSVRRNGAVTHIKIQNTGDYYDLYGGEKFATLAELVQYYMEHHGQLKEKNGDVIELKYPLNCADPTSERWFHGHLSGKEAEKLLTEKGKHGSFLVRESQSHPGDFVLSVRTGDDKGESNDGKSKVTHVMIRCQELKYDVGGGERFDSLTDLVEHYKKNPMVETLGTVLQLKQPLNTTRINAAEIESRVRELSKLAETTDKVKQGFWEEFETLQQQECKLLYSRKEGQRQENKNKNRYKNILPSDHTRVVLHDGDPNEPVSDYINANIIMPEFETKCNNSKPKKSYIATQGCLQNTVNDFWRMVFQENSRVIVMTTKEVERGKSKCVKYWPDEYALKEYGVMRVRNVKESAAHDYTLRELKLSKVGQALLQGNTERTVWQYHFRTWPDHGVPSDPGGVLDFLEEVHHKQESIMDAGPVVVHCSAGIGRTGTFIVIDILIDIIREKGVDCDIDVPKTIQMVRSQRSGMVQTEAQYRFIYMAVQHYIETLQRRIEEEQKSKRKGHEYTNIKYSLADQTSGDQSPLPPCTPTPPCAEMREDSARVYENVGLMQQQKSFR
The experiment is described as §1.

Experiment [3] has the same test system. Kind of experiment: Inhibition of SHP2 F285S mutant (1 to 525 residues) (unknown origin) expressed in Escherichia coli BL21(DE3) at up to 2 uM using DIFMUP as substrate preincubated for 30 mins followed by substrate addition by fluorescence assay.
Experiment [4] addresses T2, Tyrosine-protein phosphatase non-receptor type 11 (Homo sapiens) (UniProt Q06124).
T2 sequence (whole entry): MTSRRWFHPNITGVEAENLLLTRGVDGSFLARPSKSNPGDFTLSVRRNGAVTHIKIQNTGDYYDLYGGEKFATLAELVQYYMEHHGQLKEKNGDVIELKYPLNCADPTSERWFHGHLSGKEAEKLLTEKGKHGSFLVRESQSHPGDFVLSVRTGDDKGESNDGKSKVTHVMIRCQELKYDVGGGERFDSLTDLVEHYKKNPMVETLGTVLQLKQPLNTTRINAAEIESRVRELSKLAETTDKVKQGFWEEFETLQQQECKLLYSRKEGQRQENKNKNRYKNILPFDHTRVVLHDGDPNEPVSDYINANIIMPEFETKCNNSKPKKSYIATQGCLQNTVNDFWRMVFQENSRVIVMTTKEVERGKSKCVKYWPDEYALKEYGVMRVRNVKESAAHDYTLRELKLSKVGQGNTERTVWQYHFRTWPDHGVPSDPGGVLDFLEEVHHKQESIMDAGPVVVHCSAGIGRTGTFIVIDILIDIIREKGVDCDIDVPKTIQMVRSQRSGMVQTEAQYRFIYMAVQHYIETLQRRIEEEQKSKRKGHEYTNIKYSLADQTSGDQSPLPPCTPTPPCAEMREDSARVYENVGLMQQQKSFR
Nature of the experiment: Inhibition of SHP2 PTP domain (1 to 525 residues) (unknown origin) expressed in Escherichia coli BL21(DE3) using DIFMUP as substrate preincubated for 30 mins followed by substrate addition by fluorescence assay.

The test system of experiment [5] is T3, Tyrosine-protein phosphatase non-receptor type 11 (Homo sapiens), Q06124 [F285S,T253M,Q257L].
T3 sequence (whole entry): T1 sequence (whole entry) with T253M, Q257L
Kind of experiment: Inhibition of SHP2 F285S/T253M/Q257L mutant (1 to 525 residues) (unknown origin) expressed in Escherichia coli BL21(DE3) using DIFMUP as substrate preincubated for 30 mins followed by substrate addition by fluorescence assay.

In the next experiment the test system is MOLM-14. Kind of experiment: Antiproliferative activity against human MOLM14 cells after 3 days by CellTiter-Glo luminescence assay. The class given is functional, cell-based. Conditions: for IC50: MOLM-14, 72 h.
For the next experiment, the system named is A2058. Nature of the experiment: Antiproliferative activity against human A2058 cells harboring BRAF V600E mutation at up to 2 uM after 3 days by CellTiter-Glo luminescence assay. The class given is functional, cell-based. (In ATP-based viability assays light output follows the ATP content of the culture.)
Experiment [6] has as its target T2, Tyrosine-protein phosphatase non-receptor type 11 (Homo sapiens). Nature of the experiment: Inhibition of wild-type SHP2 (1 to 525 residues) (unknown origin) expressed in Escherichia coli BL21(DE3) using DIFMUP as substrate preincubated for 30 mins followed by substrate addition by fluorescence assay.
Experiment [7] has the same target. Kind of experiment: Inhibition of SHP2 in human MOLM14 cells assessed as reduction in phospho-Erk levels at up to 400 uM after 2 hrs by Western blot analysis. Format: cell-based.

Numbering of substitutions follows the chain as printed. The source made the active and inactive calls. The calls are words filed in the database; no cut-off is given here.

As usually defined, the IC50 is the concentration at which inhibition is half-maximal. By inhibition is commonly meant the change of the read-out against control, counted positive when it falls. Compound `COc1ccc2c(c1)sc1nc(O)c(Cc3ccccc3)c(=O)n12` yielded an IC50 in [1] of 10 µM. For the same compound, the inhibition result was “Dose-dependent effect” in experiment [2] and 40% in experiment [3]. In addition, the inhibition entry in [4] and in experiment [5] was “inactive” each time.

On to `COc1ccc2c(c1)sc1nc(Cl)c(Cc3ccccc3)c(=O)n12`, for which the inhibition result in experiment [3] is “inactive”. Also, the outcome in the experiment on MOLM-14 and in the experiment on A2058 was inactive.

`O=c1c(Cc2ccccc2)c(O)nc2sc3cc(Cl)ccc3n12`: the inhibition result in experiment [6] was “Active”. For the same compound, the inhibition entry in experiment [7] is “inactive”. This compound also yielded an inhibition in [3] of 60%. In the experiment with MOLM-14, half-maximal inhibition (IC50) was put at 85 µM. Moreover, in the experiment with A2058, the result was inactive.

Consider `NCc1ccc2c(c1)sc1nc(O)c(Cc3ccccc3)c(=O)n12`, for which the result in the experiment with A2058 was inactive.

`CC1(N)CCN(c2cnc(-c3cccc(Cl)c3Cl)c(N)n2)CC1` showed an IC50 with MOLM-14 of 0.9 µM. Besides, in the experiment with A2058, the result was inactive.
